Results: US11208629B2, “Non-human primate induced pluripotent stem cell derived hepatocytes and uses thereof” (Hoffmann-La Roche Inc., priority 2016, dated 2021)
Values belong to the compound of their own block, whether it stands above or below them.

Legend:
Cynomolgus IPSCs = test: Hepatocyte differentiation of cynomolgus IPSCs (supplement optimisation)
Method: To initialize differentiation, the cells are incubated in a defined medium comprising a Wnt pathway activator.
Generally, media change was performed every day until day 16 and afterwards every second day. Basic medium for differentiation was MT basic medium (DMEM/F12+Glutamax with insulin 7 μg/ml, monothioglycerole 450 μM, 1× Lipid concentrate, BSA 5 mg/ml, sodium selenite 14 ng/ml, 1× non-essential amino acids, heparin 2 mg/ml, transferrin 15 μg/ml, 220 μM ascorbic acid-2-phosphate) or changing to RPMI1640 medium+B27 1:50+non-essential amino acids 1:100 from day 3 of differentiation onwards. On day 1 of differentiation, medium was changed to MT basic medium with 100 ng/ml ActivinA, 10 μM Ly294002 and 1 μM CP21 (Roche GSK3β inhibitor). Then, cells were treated for two days with 100 ng/ml ActivinA, 0.25 μM LDN193189 and 1 μM CP21. At day 4, the medium was changed for three days to the supplements 50 ng/ml ActivinA, 2% knock-out serum replacement (KSR) and 0.5% DMSO. The protocol was modified to a prolonged step of high ActivinA which consisted of 100 ng/ml ActivinA at day 4 of differentiation. To induce hepatic specification, cells were maintained for four days in medium supplemented with 2% KSR, 10 ng/ml BMP4, 10 ng/ml FGF2 or FGF10 and 0.5% DMSO. […] Modification included the addition of 1 μM DAPT between day 11 and day 20. Further modifications included the change of the basis medium for maturation at day 11 to HBM medium+SingleQuots™ (Lonza).
At day 21 of differentiation, efficiency of differentiation was analyzed using two different quantification methods. First, the area covered by ALB positive cells was determined and second the area of cells with typical hepatocyte morphology was evaluated (FIG. 6A and FIG. 6B).

[1] = tested on: NHP-IPSC-derived hepatocytes; test: Hepatotoxicity assay (WST-1 cell viability); assay type: cell-based, Cynomolgus monkey; conditions: 100 μM, 24 hours, WST-1, MACS-enriched cells in matrigel sandwich
Method: NHP-IPSC-derived hepatocytes were enriched using MACS and replated in matrigel sandwich condition as described above. To assess cell response to hepatotoxic compounds cells were treated with 100 μM troglitazone (Sigma) for 24 hours. Cell viability was measured using the WST-1 reagent (Sigma). 10 μl WST-1 reagent were added directly to the medium (1:10 dilution) and cells were incubated for 4 hours at 37° C., 5% CO2. Plates were stirred for 15 seconds and absorbance at 405 nm was measured.
To assess the feasibility of NHP IPSC-derived hepatocytes as model system for drug-induced liver injury, we treated the hepatocytes with Troglitazone, a small molecule with known hepatotoxic effects.

efficiency of differentiation of pluripotent stem cells into hepatocytes (Cynomolgus IPSCs; CP21 1 μM, cell density 45000/cm^2, tested 0 to 2 μM, 30000 to 75000/cm^2): most efficient differentiation
Compound: Cn1cc(C2=C(c3cccc(N)c3)C(=O)NC2=O)c2ccccc21 [CP21, 3-(3-Amino-phenyl)-4-(1-methyl-1H-indol-3-yl)-pyrrole-2,5-dione]
cell viability during differentiation (Cynomolgus IPSCs; CP21 concentrations above 2 μM): decreased cell viability

Compound: Cc1c(C)c2c(c(C)c1O)CCC(C)(COc1ccc(CC3SC(=O)NC3=O)cc1)O2 (stereo not shown) [Troglitazone]
cell viability compared to control cells [1]: decrease in cell viability

Compound: FGF2: fibroblast growth factor used for hepatic specification
ALB positive cells at day 21 (Cynomolgus IPSCs; 10 ng/ml FGF2 versus FGF10, hepatic specification step): more ALB positive cells than FGF10 treatment
